Patent US11273165B2, “Applications for estradiol in preparing anti-small cell lung cancer and/or ovarian cancer and/or osteosarcoma products” (SHANGHAI JIAO TONG UNIVERSITY, priority 2015, dated 2022)

Key:
Type in all cases: cell-based
[1] = system: SKOV-3 ovarian cancer cells; experiment: CellTiter-Glo luminescent cell viability assay, SKOV-3 ovarian cancer cells; conditions: Homo sapiens, 72 hours
Protocol: (§1) In example 1, CELLTITER-GLO was used to test estradiol against small-cell lung cancer and/or ovarian cancer and/or osteosarcoma epithelial cell carcinoma 1. Cell plating • a) The complete medium required for each cell was prepared. • b) Before beginning the experiment, the name of the drug screened for the cells marked on the 100 mm petri dish was confirmed as well as information such as the passage time and number of passages to ensure the experiment was error-free. • c) Refer to steps d) through i) for procedures for adherent cells; refer to steps j) through l) for procedures for suspension cells. • d) When using aseptic technique, a vacuum pump was used to draw the cell culture medium. • e) 2 ml of a sterile PBS solution was used to rinse the cell surface, and a vacuum pump was used to aspirate the PBS waste. • f) A 1 ml 0.25% (w/v) Trypsin-0.038% (w/v) EDTA solution was gently added to the petri dish for cell digestion, and after gently mixing several times, the solution covered the cell surfaces. […]

[2] = system: NCI-H82 small-cell lung cancer cells; experiment: CellTiter-Glo luminescent cell viability assay, NCI-H82 small-cell lung cancer cells; conditions: Homo sapiens, 72 hours
Protocol: as §1

[3] = system: U2OS osteosarcoma cells; experiment: CellTiter-Glo luminescent cell viability assay, U2OS osteosarcoma cells; conditions: Homo sapiens, 72 hours
Protocol: as §1

[4] = system: SNU-475 human hepatoma cells; experiment: CellTiter-Glo luminescent cell viability assay, SNU-475 human hepatoma cells; conditions: 72 hours
[5] = system: NCI-H810 human hepatoma cells; experiment: CellTiter-Glo luminescent cell viability assay, NCI-H810 human hepatoma cells; conditions: 72 hours
Protocol: as §1

SMILES: C[C@]12CC[C@@H]3c4ccc(O)cc4CC[C@H]3[C@@H]1CC[C@@H]2O [estradiol]
- IC50 ([1]; SK-OV-3, SKOV-3 ovarian cancer cells): 3.07 µM
- EC50 ([1]; SK-OV-3, ovarian cancer cells, read-out: EC50 (estradiol sensitivity to ovarian cancer, FIG. 2)): 3.03 µM
- IC50 [2]: 16.3 µM
- EC50 ([2]; read-out: EC50 (estradiol sensitivity to small-cell lung cancer, FIG. 3)): 15.3 µM
- IC50 [3]: 32.7 µM
- EC50 ([3]; read-out: EC50 (estradiol sensitivity to osteosarcoma, FIG. 4)): 28.8 µM
- IC50 [4]: ≥ 100 µM
- IC50 [5]: ≥ 100 µM
